The test system of data set [1] is ChE from rat brain homogenates. Briefly: Time course of total ChE inhibition at 1 μM versus rivastigmine. The class given is biochemical. To be noted: 1 μM, time course. The procedure: The new carbamates of the present invention are expected to act as rivastigmine and inhibit ChE activity. […] Enzyme activity was determined with Ellman's colorimetric method after addition of substrate, and the results are shown in FIGS. 8A-8B.

Data set [2] has as its target T1, total cholinesterase (ChE) (Rattus norvegicus, UniProt P37136).
T1 sequence (P37136 32-614): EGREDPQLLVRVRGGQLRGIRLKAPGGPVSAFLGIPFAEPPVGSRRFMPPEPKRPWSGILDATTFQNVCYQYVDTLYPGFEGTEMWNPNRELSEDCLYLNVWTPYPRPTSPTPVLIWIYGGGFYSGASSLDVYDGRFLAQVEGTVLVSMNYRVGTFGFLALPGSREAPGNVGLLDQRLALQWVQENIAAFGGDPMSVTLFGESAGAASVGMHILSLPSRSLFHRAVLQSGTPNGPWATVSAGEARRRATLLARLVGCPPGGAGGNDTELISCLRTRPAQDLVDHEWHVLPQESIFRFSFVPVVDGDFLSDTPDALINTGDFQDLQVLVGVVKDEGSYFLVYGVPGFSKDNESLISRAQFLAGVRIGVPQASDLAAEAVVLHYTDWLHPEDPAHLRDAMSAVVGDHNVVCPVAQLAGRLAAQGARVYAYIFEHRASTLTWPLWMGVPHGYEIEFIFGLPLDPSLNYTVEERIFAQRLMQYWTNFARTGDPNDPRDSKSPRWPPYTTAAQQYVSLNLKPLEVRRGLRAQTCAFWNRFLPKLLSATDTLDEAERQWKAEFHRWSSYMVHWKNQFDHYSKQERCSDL
Briefly: Total cholinesterase inhibition in rat brain homogenates (Ellman). The class given is biochemical. The procedure: Cholinesterase activity was determined in rat brain homogenate following incubation with varying concentrations of the multifunctional pro-chelators of the invention (also referred to herein as “carbamates”).
Ellman's colorimetric method was adapted for determination of total cholinesterase (ChE) and butyrylcholinesterase (BuChE) activities in rat brain homogenates. Brain tissue from adult Wistar rats was homogenized at 2% w/v (or 10% w/v, for BuChE) in 0.1 M sodium phosphate buffer, pH 7.4, with added NaCl 58.5 g/l and Triton X-100 0.05% v/v. Aliquots of homogenate (20 μl) were incubated with the test compounds for designed time intervals in phosphate buffer pH 7.4, before addition of 5,5′-dithiobis(2-nitrobenzoic) acid and either 1 mM acetylthiocholine iodide or 10 mM butyrylthiocholine iodide (Sigma, St. Louis, Mo.). The reaction was run at 37° C. in a final volume of […] in 96-well microplates and was followed at 412 nm for 5 min with a plate reader. In every experiment, cholinesterase-independent (nonspecific) substrate hydrolysis was determined by including one experimental group treated with tacrine 30 μM. Appropriate tissue and reagent blanks were also included. Reaction velocities were determined in three or four replicates per condition; these were averaged and expressed as percent activity relative to control (solvent), after subtracting the rate of nonspecific hydrolysis.
The results are the mean SEM, n=3 in triplicates. ND—not determined.
For orientation: DTNB colorimetry detects thiols as they appear.

Data set [3] concerns the target T2, rat brain MAO-A (Rattus norvegicus, UniProt P21396).
T2 construct: from tissue; host or cells: rat brain homogenate
T2 sequence (P21396 1-526): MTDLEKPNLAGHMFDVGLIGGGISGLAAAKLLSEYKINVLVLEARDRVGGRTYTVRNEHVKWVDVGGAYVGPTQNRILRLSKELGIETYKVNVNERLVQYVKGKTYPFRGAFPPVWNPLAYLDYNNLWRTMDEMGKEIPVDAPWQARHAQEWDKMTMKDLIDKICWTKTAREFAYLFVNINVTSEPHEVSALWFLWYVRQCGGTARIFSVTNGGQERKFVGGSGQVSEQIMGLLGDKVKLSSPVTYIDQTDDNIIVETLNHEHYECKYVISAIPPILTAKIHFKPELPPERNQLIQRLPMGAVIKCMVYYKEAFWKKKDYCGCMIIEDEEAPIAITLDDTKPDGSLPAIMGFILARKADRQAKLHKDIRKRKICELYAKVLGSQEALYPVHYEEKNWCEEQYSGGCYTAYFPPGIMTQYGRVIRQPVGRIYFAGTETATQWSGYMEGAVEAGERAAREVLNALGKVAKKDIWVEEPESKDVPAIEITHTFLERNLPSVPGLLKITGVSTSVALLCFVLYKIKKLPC
Briefly: biochemical. As to conditions: for IC50: IC50 MAO-A, rat brain homogenate in vitro, mean SEM, n=3 in triplicates. The procedure: (§1) Rats were decapitated and the brains were quickly taken into a pre-weighted ice-cold sucrose buffer (10 mM Tris-HCl buffer, pH 7.4, containing 0.32 M sucrose), and their weights were measured. The brains were homogenized at 0-4° C. in 0.32 M sucrose (one part tissue to 20 parts sucrose) in a Teflon glass homogenizer. The resultant homogenates were used to determine MAO activity. Protein concentration was determined with Bradford reagent at 595 nm, using bovine serum albumin as a standard.
(§2) The activity of MAO-A and MAO-B were determined by the adapted method of Tipton & Youdim (Tipton et al. 1983). Briefly, the multifunctional compound tested was added to a suitable dilution of the enzyme preparation (70 μg MAO-B and 150 μg MAO-A) in 0.05 M phosphate buffer (pH 7.4). The mixture was incubated together with 0.05 μM 1-deprenyl, a specific inhibitor of MAO-B (for determination of MAO-A activity in the presence of the test compound) or 0.05 μM clorgyline a specific inhibitor of MAO-A (for determination of MAO-B activity). […] The reaction was stopped with 2M ice-cold citric acid, and the radioactive metabolites (5-hydroxytryptaldehyde and phenylacetaldehyde) were extracted by addition of 2 ml of ethylacetate/toluene (1:1 vol/vol). The radioactivity contained in the organic phase was determined by liquid-scintillation counting in cpm units.
(§3) MAO-A and MAO-B activities were determined in rat brain homogenate in vitro following incubation with varying concentrations of the test compounds.
(§4) The results are the mean SEM, n=3 in triplicates.

For data set [4], the target named is T3, rat brain MAO-B (Rattus norvegicus, UniProt P19643).
T3 construct: from tissue; host or cells: rat brain homogenate
T3 sequence (P19643 1-520): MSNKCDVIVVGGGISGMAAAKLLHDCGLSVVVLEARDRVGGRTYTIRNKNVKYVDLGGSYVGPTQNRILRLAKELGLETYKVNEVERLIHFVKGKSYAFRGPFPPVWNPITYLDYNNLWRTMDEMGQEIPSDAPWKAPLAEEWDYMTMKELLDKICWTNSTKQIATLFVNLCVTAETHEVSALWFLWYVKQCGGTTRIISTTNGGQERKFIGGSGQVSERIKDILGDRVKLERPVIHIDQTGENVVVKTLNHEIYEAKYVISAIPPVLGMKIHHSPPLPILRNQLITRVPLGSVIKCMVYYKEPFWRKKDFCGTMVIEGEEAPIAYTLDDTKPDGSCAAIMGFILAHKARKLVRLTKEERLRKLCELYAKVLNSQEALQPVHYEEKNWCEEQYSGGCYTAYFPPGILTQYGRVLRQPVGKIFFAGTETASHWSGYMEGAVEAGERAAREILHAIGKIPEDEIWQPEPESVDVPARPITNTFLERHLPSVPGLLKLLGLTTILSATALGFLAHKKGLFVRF
Briefly: biochemical. As to conditions: for inhibition at 10 µM: read-out: percent inhibition MAO-B. The procedure:
as §1, §2, §3, §4

Data set [5] addresses T4, rat brain cholinesterase (total ChE) (Rattus norvegicus, UniProt P37136).
T4 construct: rows headed: Ki (dissociation constant for EI); other: rat brain total ChE; mean of 3-4 experiments; k+2 (carbamylation rate constant); other: from ki; rate of carba
T4 sequence (P37136 32-614): T1 sequence (P37136 32-614)
In words: Kinetics of irreversible cholinesterase inhibition (Kitz-Wilson). The data set is classed as biochemical. The procedure: To determine kinetic constants of irreversible inhibition, cholinesterase from rat brain homogenates was incubated with the multifunctional compounds of the invention for designed time intervals in phosphate buffer pH 7.4.
The residual cholinesterase activity was immediately measured with the Ellman's colorimetric method after addition of 5,5′-dithiobis(2-nitrobenzoic) acid and 1 mM acetylthiocholine iodide. The inhibition kinetics were assessed according to Kitz-Wilson equation:
[formula] wherein: E represents the enzyme; I represents the intact carbamate (inhibitor); EI is the initial reversible enzyme complex; E* is the carbamylated enzyme; Ki represents the dissociation constant for EI; k+2 is the carbamylation rate constant and k+3 is the decarbamylation rate constant; kapp is the pseudo-first-order inhibition rate constant; ki, the second-order rate inhibition constant, is approximated by k+2/Ki. Under experimental condition [I]>>[E0].
According to equation (2), the logarithm of the ratio of the residual cholinesterase activity (E) and the initial cholinesterase activity (E0) is plotted against the time of incubation. The slopes of the lines representing kapp were determined by linear regression.
The slopes of the lines represent the pseudo-first-order inhibition rate constant (kapp) determined from linear regression analysis. […] The carbamylation rate constant (k+2) was obtained from the y-intercept, and the dissociation constant ([…] was obtained from the slope of the line multiplied by k+2 as described in Materials and Methods.
From these lines, the values of kapp were calculated based on Equation (2) of the Kitz-Wilson equations (see Material and Methods). […] The carbamylation rate constant k+2 is a measure of inactivation of ChE.

The subject of data set [6] is human SH-SY5Y neuroblastoma cells. Briefly: MTT cell viability assay in SH-SY5Y cells. The data set is classed as cell-based. As to conditions: MTT after 48 h incubation. The procedure:
Cell culture. Human neuroblastoma SH-SY5Y cells were obtained from American Type Culture Collection (Rockville, Md., USA). Cells were routinely cultured in MEM-Eagle/F-12(HAM) (1:1), containing 10% FCS and a mixture of 2% sodium bicarbonate, 1% penicillin/streptomycin/nystatin and 1% sodium pyruvate. Cell cultures were incubated at 37° C. in a humid 5% CO2-95% air environment.
Twenty-four hours after attachment of the SH-SY5Y cells, the medium was replaced with DMEM containing 0.1% BSA. The test compounds were added to the cells after 1 h of incubation. After 24 h incubation, the cells were subjected to MTT test as previously described (Gassen et al., 1998). The absorption was determined in a Perkin-Elmer Dual Wavelength Eliza-Reader at λ=570/650 nm after automatic subtraction of background readings. The results are expressed as percentage of the untreated control.
The effect of the iron chelators M30 and HLA20 versus that of the pro-chelators 13 and 23, on viability of human SH-SY5Y cells was tested. Human SH-SY5Y neuroblastoma cells were plated in 100-mm culture dishes and cultured in DMEM (4,500 mg/l glucose), containing 10% FCS (fetal calf serum, Bet Haemek, Israel), and 1% of a mixture of penicillin/streptomycin/nystatin. When cells reached the required confluence, they were detached and re-cultured in microtiter plates (96 wells) pre-coated with collagen ([…]), in DMEM with 10% of fetal calf serum (0.5×10^4 cells/well). Cell viability was tested by the 3-(4,5-dimethylthiazol-2-yl)-2,5-diphenyltetrazolium (MTT) assays after 48 h incubation.
Background: Tetrazolium assays rely on reduction of a dye to a coloured formazan, in cell work by metabolically active cells.

Data set [7] can be described thus: Metal chelation assay (UV-vis spectra of metal complexes). The data set is classed as physicochemical. As to conditions: ZnCl2, CuSO4, FeCl3 and FeSO4; 5% NH4Ac, pH=7. The source says: Metal chelation, particularly iron chelation, is an important precondition for the antioxidative-function of the multi-functional compounds of the invention, because it is the excessive iron stores and iron-mediated generation of free radicals in the brain that are thought to be associated with neurodegenerative diseases. The novel strategy, according to the present invention, for the treatment of neurodegenerative diseases such as Alzheimer's disease is the design of pro-chelators that inhibit AChE with a concomitant release of the active chelators. This novel strategy has advantages over the current chelator strategy since it is capable not only of minimizing the potential toxicity associated with strong chelators such as the 8-hydroxyquinoline derivatives disclosed in WO 2004/041151, which might interfere with healthy metal metabolism in the brain, but it also offers multiple activities against AChE, Aβ aggregation, oxidative stress, and metal (Fe, Cu, Zn) dyshomeostasis in the brain. Therefore, a metal chelation assay was used to confirm that the new multifunctional pro-chelators that comprise an N,N-dialkylcarbamoyl moiety [N(RR′)CO—] linked to the oxygen at position 8 of quinoline would have little to no affinity for metal ions in their pro-drug form. When these pro-chelators bind to cholinesterase or AChE in the brain, the N,N-dialkylcarbamoyl moiety is dissociated, thus unmasking a free hydroxyl group at said position 8 of quinoline, turning the pro-chelators into active chelators, which passivate excess cerebral metal ions and protect neuronal cells against reactive oxygen species (ROS).
A spectrophotometric method was used for measurement of metal complexes of the multifunctional pro-chelators of the invention with metal ions selected from Zn^2+, Cu^2+, Fe^3+ and Fe^2+, and compared to the respective metal complexes of some known iron chelators disclosed in WO 2004/041151.
Thus, the metal chelating function of compound 13 and compound 23 as compared to M30 and HLA20, respectively, was measured by dissolving 0.1 mM or 0.2 mM of the test compounds in 5% NH4Ac, pH=7, in the presence and absence of 0.1 mM or 0.2 mM of the metal salts […], CuSO4, FeCl3 and FeSO4, and measuring the UV-vis spectra (Hewlett-Packard 8450A diode array spectrophotometer) of the various metal complexes formed. The results for M30 and compound 13 are shown in FIGS. 1A and 1B, respectively.

The results in this text go back to patent publication US8802675B2, “Neuroprotective multifunctional compounds and pharmaceutical compositions comprising them” (priority 2009, dated 2014).

Structures are written as SMILES.

With `C#CCN(C)Cc1ccc(OC(=O)N(C)C)c2ncccc12` [Compound 2, 5-((methyl(propargyl)amino)methyl)quinolin-8-yl dimethylcarbamate], the “ChE inhibition compared with rivastigmine and other carbamates” value in data set [1] is given as “more potent than”. Further, the IC50 in data set [2] (rat brain homogenates, mean SEM, n=3 in triplicates) was 520 nM; in data set [3], less than 100 nM. In addition, the inhibition at 10 µM in data set [4] came out at 67%.

In the case of `C#CCN(C)Cc1ccc(OC(=O)NCCCCCC)c2ncccc12` [Compound 4, 5-((methyl(propargyl)amino)methyl)quinolin-8-yl hexylcarbamate], the inhibition at 50 µM in data set [2] (read-out: percent inhibition Total ChE) was 43%. Moreover, the IC50 in data set [3] was less than 100 nM. Besides, the inhibition at 10 µM in data set [4] amounted to 25%. In addition, in data set [5] (from ki), the “potency in inhibiting ChE relative to rivastigmine” value is “half potent”. The kinact/KI in data set [5] (pH 7.4, read-out: ki (second-order rate inhibition constant, approximated by k+2/Ki)) was 39 M⁻¹ s⁻¹.

`C#CCN1CCN(Cc2ccc(O)c3ncccc23)CC1` [HLA20, reference compound]: in data set [3] (rat brain homogenate), the “inhibitory effect on MAO-A” value was “minor to none inhibitory effects”. The “inhibitory effect on MAO-B” value in data set [4] (rat brain homogenate) is “minor to none inhibitory effects”. Further, the cell viability is no more than 75% in data set [6] (10 μM), no more than 75% in data set [6] (25 μM) and “almost all the cells died” in data set [6] (50 μM). Further, the “binding of metal ions (shift of absorbance peak)” value in data set [7] was “binds the respective metal ions”.

The IC50 is the point on the concentration scale where inhibition reaches its midpoint. A high value points to weaker potency. Usually inhibition stands for the change of the read-out against control, counted positive when it falls. As usually defined, the cell viability is a per cent measure of how many cells are alive, often set against a control.
